# In US8507472B2 (priority 2010, dated 2013):
# What was measured:
# Alternaria solani = assay: Alternaria test (tomato)/protective; type: in vivo; conditions: in vivo
# Method: (§1) Solvent: 49 parts by weight of N,N-dimethylformamide
# (§2) Emulsifier: 1 part by weight of alkylaryl polyglycol ether
# (§3) To produce a suitable preparation of active compound, 1 part by weight of active compound is mixed with the stated amounts of solvent and emulsifier, and the concentrate is diluted with water to the desired concentration.
# To test for protective activity, young tomato plants are sprayed with the active compound preparation at the stated application rate. 1 day after the treatment, the plants are inoculated with a spore suspension of Alternaria solani and then remain at 100% rel. humidity and 22° C. for 24 h. The plants then remain at 96% rel. atmospheric humidity and a temperature of 20° C.
# (§4) Evaluation is carried out 7 days after the inoculation. 0% means an efficacy which corresponds to that of the control, whereas an efficacy of 100% means that no infection is observed.
# Phytophthora infestans = type: in vivo; conditions: in vivo
# [1] = system: Fusarium nivale (var. majus); assay: Fusarium nivale (var. majus) test (wheat)/protective; type: in vivo; conditions: 1000 ppm active compound, protective, evaluation 5 days after inoculation
# Method: Solvent: 49 parts by weight of N,N-dimethylacetamide
# as §2, §3
# To test for protective activity, young plants are sprayed with the active compound preparation at the stated application rate.
# After the spray coating has dried on, the plants are sprayed with spores of a spore suspension of Fusarium nivale (var. majus).
# The plants are placed in a greenhouse chamber under a translucent incubation hood at 10° C. and 100% relative atmospheric humidity.
# Evaluation is carried out 5 days after the inoculation. 0% means an efficacy which corresponds to that of the control, whereas an efficacy of 100% means that no infection is observed.
# DON/AcDON production = assay: microbe, parasite or virus in culture; type: cell-based, Fusarium graminearum; conditions: 7 days at 28° C.
# Fusarium graminearum = assay: microbe, parasite or virus in culture; type: cell-based; conditions: 50 μM
# Pyrenophora teres = Pyrenophora teres test (barley)/protective; type: in vivo; conditions: in vivo
# Outline: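 Protective test: young barley plants sprayed at the stated rate with compound in DMF/alkylaryl polyglycol ether diluted with water, inoculated with P. teres spores 1 day later, kept 48 h at 100% rel. humidity and 22° C., then greenhouse at 80% and 20° C. Efficacy scored 7-9 days post-inoculation (0% = control, 100% = no infection).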
# Leptosphaeria nodorum = Leptosphaeria nodorum test (wheat)/protective; type: in vivo; conditions: in vivo
# Method: as §1, §2
# (§5) To produce a suitable preparation of active compounds, 1 part by weight of active compound is mixed with the stated amounts of solvent and emulsifier, and the concentrate is diluted with water to the desired concentration.
# To test for protective activity, young wheat plants are sprayed with the active compound preparation at the stated application rate. 1 day after the treatment, the plants are inoculated with an aqueous spore suspension of Leptosphaeria nodorum and then remain at 100% rel. atmospheric humidity and 22° C. for 48 h. The plants are then placed in a greenhouse at 90% rel. atmospheric humidity and a temperature of 22° C.
# Evaluation is carried out 7-9 days after the inoculation. 0% means an efficacy which corresponds to that of the control, whereas an efficacy of 100% means that no infection is observed.
# Uromyces appendiculatus = assay: Uromyces test (bean)/protective; type: in vivo; conditions: in vivo
# Method: (§6) Solvents: 24.5 parts by weight of acetone
# (§7) • 24.5 parts by weight of dimethylacetamide Emulsifier: 1 part by weight of alkylaryl polyglycol ether
# (§8) To produce a suitable preparation of active compound, 1 part by weight of active compound is mixed with the stated amounts of solvents and emulsifier, and the concentrate is diluted with water to the desired concentration.
# (§9) To test for protective activity, young plants are sprayed with the active compound preparation at the stated application rate. After the spray coating has dried on, the plants are inoculated with an aqueous spore suspension of the bean rust pathogen Uromyces appendiculatus and then remain in an incubation cabin at about 20° C. and 100% relative atmospheric humidity for 1 day.
# (§10) The plants are then placed in a greenhouse at about 21° C. and a relative atmospheric humidity of about 90%.
# (§11) Evaluation is carried out 10 days after the inoculation. 0% means an efficacy which corresponds to that of the control, whereas an efficacy of 100% means that no infection is observed.
# Sphaerotheca fuliginea = assay: Sphaerotheca test (cucumber)/protective; type: in vivo; conditions: in vivo
# Method: as §1, §2, §5
# To test for protective activity, young cucumber plants are sprayed with the active compound preparation at the stated application rate. 1 day after the treatment, the plants are inoculated with a spore suspension of Sphaerotheca fuliginea. The plants are then placed in a greenhouse at 70% rel. atmospheric humidity and a temperature of 23° C.
# as §4
# Botrytis cinerea = assay: Botrytis test (bean)/protective; type: in vivo; conditions: 100 ppm active compound, protective, evaluation 2 days after inoculation
# Method: as §6, §7, §8
# To test for protective activity, young plants are sprayed with the active compound preparation at the stated application rate. After the spray coating has dried on, 2 small pieces of agar colonized by Botrytis cinerea are placed onto each leaf. The inoculated plants are placed in a dark chamber at about 20° C. and 100% relative atmospheric humidity.
# 2 days after the inoculation, the size of the infected areas on the leaves is evaluated. 0% means an efficacy which corresponds to that of the control, whereas an efficacy of 100% means that no infection is observed.
# Venturia inaequalis = assay: Venturia test (apple)/protective; type: in vivo; conditions: 100 ppm active compound, protective, evaluation 10 days after inoculation
# Method: Solvents: 24.5 parts by weight of acetone • 24.5 parts by weight of dimethylacetamide Emulsifier: 1 part by weight of alkylaryl polyglycol ether
# as §8
# as §9, with “conidia” for “spore”, “apple scab” for “bean rust”, “Venturia inaequalis” for “Uromyces appendiculatus”
# as §10, §11
SMILES,efficacy in % (Alternaria solani),efficacy in % (Phytophthora infestans),efficacy in % [1],% inhibition of DON/AcDON at 50 μM (DON/AcDON production),% inhibition of the fungal growth of Fusarium graminearum at 50 μM (Fusarium graminearum),efficacy in % (Pyrenophora teres),efficacy in % (Leptosphaeria nodorum),efficacy in % (Uromyces appendiculatus),efficacy in % (Sphaerotheca fuliginea),efficacy in % (Botrytis cinerea),efficacy in % (Venturia inaequalis)
CN(C)C=Nc1cc(-c2c(-c3ccccc3)nn3c2CCCC3)ccn1 [Example 38],95%,70%,86%,99%,89%,95%,,,,,
CC(C)CC(=O)Nc1cc(-c2c(-c3ccsc3)nn3c2CCCC3)ccn1 [Example 64],100%,80%,,100%,100%,100%,94%,78%,86%,100%,99%
CCC(=O)Nc1cc(-c2c(-c3ccc(F)cc3)nn3c2CCOC3(C)C)ccn1 [Example 86],90%,,,,,100%,70%,95%,100%,100%,95%
CC1CCc2c(-c3ccnc(NC(=O)C4CC4)c3)c(-c3ccc(F)cc3)nn21 (stereo not shown) [Example 78],,,,,,95%,100%,94%,100%,100%,100%
Fc1ccc(-c2nn3c(c2-c2ccncc2)CCC3)cc1 [Example 7],95%,95%,,99%,100%,80%,,,90%,95%,76%
O=C(Nc1cc(-c2c(-c3ccccc3)nn3c2CCCC3)ccn1)c1ccccc1 [Example 33],89%,70%,,99%,100%,78%,70%,95%,95%,98%,95%
O=C(Nc1cc(-c2c(-c3ccccc3)nn3c2CCCC3)ccn1)c1ccsc1 [Example 51],95%,,,100%,41%,90%,,86%,,99%,74%
CC(C)Nc1cc(-c2c(-c3ccc(F)cc3)nn3c2CCC3)ccn1 [Example 52],90%,95%,,99%,19%,80%,,,,78%,94%
